Reference: patent publication US9126945B2, “N-(3-carbamoylphenly)-1H-pyrazole-5-carboxamide derivatives and the use thereof for controlling animal pests” (BAYER INTELLECTUAL PROPERTY GMBH, priority 2011, dated 2015)

How the values were obtained:
[1] = test system: Spodoptera frugiperda; assay: Spodoptera frugiperda test (SPODFR spray treatment), maize leaf discs; format: in vivo
From the text: Spodoptera frugiperda Test (SPODFR Spray Treatment)

[2] = test system: Myzus persicae; assay: Myzus test (MYZUPE spray treatment); format: in vivo
Protocol: Myzus test (Myzupe spray treatment)
After 6 days, the efficacy in % is determined.
Myzus Test (MYZUPE Spray Treatment)

[3] = test system: Tetranychus urticae; assay: Tetranychus test, OP-resistant (TETRUR spray treatment), bean leaf discs; format: in vivo; conditions: application rate 500 g/ha; after 6 days
Protocol: Tetranychus Test, OP-Resistant (TETRUR Spray Treatment)
After a time of 6 days, the efficacy in % is determined.

[4] = test system: Ctenocephalides felis; assay: Ctenocephalides felis oral (CTECFE); format: in vivo
Protocol: Ctenocephalides felis Oral (CTECFE)
Solvent: 1 part by weight of dimethyl sulphoxide
For the purpose of producing a suitable preparation of active compound, 10 mg of active compound are mixed with 0.5 ml of dimethyl sulphoxide. A portion of the concentrate is diluted with citrated cattle blood, and the desired concentration is prepared.
(§1) About 20 unfed adult fleas (Ctenocephalides felis) are placed into a chamber which is closed at the top and bottom with gauze. A metal cylinder whose bottom end is closed with parafilm is placed onto the chamber. The cylinder contains the blood/active compound preparation, which can be taken up by the fleas through the parafilm membrane. After 2 days, the kill in % is determined.
For the purpose of preparing an appropriate active compound formulation, 10 mg of active compound are mixed with 0.5 ml of dimethyl sulphoxide. A portion of the concentrate is diluted with citrated cattle blood, and the desired concentration is prepared.
as §1, with “membrane.” for “membrane. After 2 days, the kill in % is determined.”

[5] = test system: Lucilia cuprina larvae; assay: Lucilia cuprina test (LUCICU); format: in vivo; conditions: 100 ppm; after 2 days
Protocol: Lucilia cuprina Test (LUCICU)
(§2) Solvent: dimethyl sulphoxide
Vessels containing horse meat treated with the active compound preparation of the desired concentration are populated with about 20 Lucilia cuprina larvae.
(§3) After 2 days, the kill in % is determined.

[6] = test system: Musca domestica; assay: Musca domestica test (MUSCDO); format: in vivo
Protocol: Musca domestica Test (MUSCDO)
as §2
Vessels containing a sponge treated with the active compound preparation of the desired concentration are populated with adult Musca domestica.
as §3
Vessels containing a sponge treated with the active compound formulation of the desired concentration are populated with adult Musca domestica.
After the desired period of time, the kill in % is determined.

[7] = test system: Amblyomma hebraeum; assay: Amblyomma hebaraeum test (AMBYHE); format: in vivo; conditions: 100 ppm; after 42 days
Protocol: Amblyomma hebaraeum Test (AMBYHE)
as §2
Tick nymphs (Amblyomma hebraeum) are placed into perforated plastic beakers and immersed in the desired concentration for one minute. The ticks are transferred on filter paper into a Petri dish and stored in a climate-controlled cabinet.
After 42 days, the kill in % is determined.

[8] = test system: Phaedon cochleariae; assay: Phaedon cochleariae spray test (PHAECO), cabbage leaves, ppm; format: in vivo; conditions: 168 h, 4 ppm, 7 dat
From the text: Phaedon cochleariae Spray Test (PHAECO)
(§4) Solvent: 7 parts by weight of dimethylformamide
(§5) Emulsifier: 2 parts by weight of alkylaryl polyglycol ether
(§6) If the addition of ammonium salts or/and penetrants is required, these are in each case added in a concentration of 1000 ppm to the solution of the preparation.

[9] = test system: Plutella xylostella; assay: Plutella xylostella spray test (PLUTMA); format: in vivo; conditions: 168 h, 7 dat
From the text: Plutella xylostella Spray Test (PLUTMA)
as §4, §5, §6

[10] = test system: Spodoptera frugiperda; assay: Spodoptera frugiperda spray test (SPODFR), cotton leaves, ppm; format: in vivo; conditions: 168 h, 7 dat
From the text: Spodoptera frugiperda Spray Test (SPODFR)
as §4, §5, §6
Cotton leaves (Gossypium hirsutum) are sprayed with an active compound formulation of the desired concentration and populated with caterpillars of the armyworm (Spodoptera frugiperda).

[11] = test system: Heliothis armigera; assay: Heliothis armigera spray test (HELIAR); format: in vivo; conditions: Helicoverpa armigera, 168 h, 7 dat
From the text: Heliothis armigera Spray Test (HELIAR)
as §4, §5, §6

[12] = test system: Nilaparvata lugens; assay: Nilaparvata lugens spray test (NILALU); format: in vivo; conditions: 168 h, 7 dat
From the text: Nilaparvata lugens Spray Test (NILALU)
as §6

[13] = test system: Frankliniella occidentalis; assay: Frankliniella occidentalis spray test (FRANOC); format: in vivo; conditions: 168 h, 7 dat
From the text: Frankliniella occidentalis Spray Test (FRANOC)
as §6

[14] = test system: Liriomyza trifolii; assay: Liriomyza trifolii spray test (LIRITR); format: in vivo; conditions: 168 h, 7 dat
From the text: Liriomyza trifolii Spray Test (LIRITR)
as §6

[15] = log P by HPLC, EEC Directive 79/831 Annex V.A8, method a); format: physicochemical; conditions: reversed-phase C18 HPLC column; cell marked a): HPLC, reversed-phase C18, acetonitrile/water with formic acid, gradient 10% to 95% acetonitrile
Summary of the method: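 Reversed-phase C18 HPLC (50*4.6, 1.8 micron) per EEC Directive 79/831 Annex V.A8, acetonitrile/water with formic acid, gradient 10% to 95% acetonitrile over 4.25 min then 1.25 min hold; 55° C, 2.0 ml/min, with MS detection.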

[16] = test system: Phaedon cochleariae; assay: Phaedon test (PHAECO spray treatment), Chinese cabbage leaf discs
[17] = application rate 500 g/ha, after 7 days
[18] = Phaedon cochleariae, in Brassica rapa, foliar, 168 h, read-out: % Activity dat

Cn1nc(C(F)(F)C(F)(F)F)c(C(F)(F)F)c1C(=O)Nc1ccc(Cl)c(C(=O)NC2(C#N)CC2)c1 [Example 10]
inhibition at 100 g/ha ([1]; Spodoptera frugiperda, foliar, 168 h, SPODFR, 100 g/ha, 7 dat): 100%
efficacy in % [1, 17]: 100%
inhibition at 20 g/ha ([2]; Myzus persicae, 144 h, MYZUPE, 20 g/ha, 6 dat): 80%
inhibition at 100 g/ha ([2]; Myzus persicae, 144 h, MYZUPE, 100 g/ha, 6 dat): 100%
inhibition at 500 g/ha ([2]; Myzus persicae, 144 h, MYZUPE, 500 g/ha, 6 dat): 100%
efficacy in % ([2]; application rate 500 g/ha, after 6 days): 100%
efficacy in % [3]: 90%
kill in % (effect) ([4]; 100 ppm, after 2 days): 100%
inhibition at 0.8 ppm ([4]; Ctenocephalides felis, po, 48 h, CTECFE, 0.8 ppm, 2 dat): 90%
inhibition at 4 ppm ([4]; Ctenocephalides felis, po, 48 h, CTECFE, 4 ppm, 2 dat): 98%
inhibition at 20 ppm ([4]; Ctenocephalides felis, po, 48 h, CTECFE, 20 ppm, 2 dat): 100%
kill in % (efficacy) [5]: 100%
kill in % (efficacy) ([6]; 100 ppm, after 2 days): 100%
inhibition at 100 ppm ([6]; Musca domestica, 48 h, MUSCDO, 2 dat): 100%
kill in % (effect) [7]: 100%
inhibition at 4 ppm [8]: 100%
inhibition at 20 ppm [9]: 100%
inhibition at 20 ppm [10]: 100%
inhibition at 20 ppm ([11]; 20 ppm): 100%
inhibition at 100 ppm ([11]; 100 ppm): 100%
inhibition at 100 g/ha ([12]; 100 g/ha): 100%
inhibition at 500 g/ha ([12]; 500 g/ha): 100%
inhibition at 20 g/ha ([13]; 20 g/ha): 90%
inhibition at 500 g/ha ([13]; 500 g/ha): 100%
inhibition at 500 g/ha [14]: 100%
chromatographic logP [15]: 3.27
inhibition at 20 g/ha [16, 18]: 100%
inhibition at 100 g/ha [16, 18]: 100%
efficacy in % [16, 17]: 100%
